Data from publication PMC8275550, “Developmental Neurotoxicity of Fipronil and Rotenone on a Human Neuronal In Vitro Test System” (Neurotoxicity Research, 2021).
Entries after “also recorded” stand apart in the source; their conditions may differ. Like-named read-outs stand apart in the source and are kept apart here.

Columns and labels:
NT2 neurons = assay: cells; format: cell-based, human; conditions: for Effect on neurite outgrowth, endpoint specific control compounds: concentration-response curves, supplementary Fig. 1
Excerpt: Two photographs/well at × 20 magnification were taken.

NT2 precursor cells [1] = conditions: 100 nM cytochalasin D, 44 h, without affecting viability; ref Stern et al. [2014]; cited from earlier work
[2] = tested on: differentiating NT2 cells; assay: cells; format: cell-based, human; conditions: for IC50: NT2, 120 h, read-out: IC50 neuronal differentiation (ß-tub III, spec. EP)
Procedure: (§1) As established in our previous study (Stern et al. [2014]), cells were seeded into 96-well plates (Corning Costar, Kaiserslautern, Germany) at 80,000 cells per well and incubated in DMEM/F12 with 10 µM retinoic acid (RA) for 4 days (one media change). Cells were incubated for further 5 days (one media change) in media containing 10 µM RA and up to seven concentrations of a test compound. On day 9 (5-day exposition), cell viability was measured using a resazurin reduction assay (Trinova Biochem, Giessen, Germany). Subsequently, cells were fixed for 15 min in PFA and immunolabeled for ß-tubulin type III as above (Fig. 1a). For control purposes, photographs were taken at × 20 magnification as above. Neuronal differentiation was determined by measuring red fluorescence (excitation 568 nm, emission 603 nm) in a multiwell-plate reader (Infinite 200, TECAN, Germany). As a confirmation of the viability data, cell number was also quantified by measuring DAPI fluorescence (excitation 350 nm, emission 488 nm).

[3] = Resazurin reduction viability assay in the neuronal differentiation assay; format: cell-based, human; conditions: human
Procedure: as §1

NT2 precursor cells [4] = assay: cells; format: cell-based, human; conditions: for IC50: read-out: IC50 migration (spec. EP); for Rescue by NAC, migration / Rescue by Y-27632, migration: yes = at least one concentration of rescuing compound with specific endpoint significantly less affected
Procedure: (§2) As established before (Stern et al. [2014]), NT2 precursor cells were seeded in 96-mm bacteriological grade Petri dishes (Greiner, Hamburg, Germany) at a density of 4 × 10^6–5 × 10^6 cells per dish. Within 24 h, cells formed free-floating spherical aggregates of 300–800 µm diameter. On the first day, 10 ml of culture medium was added to each Petri dish. On the next days, medium with 10 μM retinoic acid (RA) was added and changed every 2–3 days by transferring the cell suspension to centrifuge tubes and centrifuge at 200 × g for 7 min. After 9 days in culture, aggregates were gently resuspended using a Pasteur pipette, and seeded at 60,000 cells per well into black 96-well plates with flat transparent bottom (Nunc). Plates were lined with poly-D-lysine and laminin (10 µg/ml each), equipped with silicone stoppers from the Oris Cell Migration Assay (AMS Biotechnology, Abingdon, UK). Cells were allowed to adhere overnight. On the next day, stoppers were pulled leaving a monolayer of cells with a circular hole of 2-mm diameter. […] After one wash in PBS, cells were fixed for 15 min in PFA, washed twice in PBS-T and stained with DAPI (0.5 µg/ml) for 5 min, followed by two washes in PBS. A black 96-hole plastic mask leaving a central circular area of 2-mm diameter for each well was clipped to the bottom of the plate. This allows viewing only those cells that had migrated into the free areas left by the silicone stoppers during seeding (Fig. 1b). Migration was quantified by taking two photographs of each well and measuring the distance of the migration front from the black margin of the mask in using ImageJ. Occasional asymmetries caused by slight inaccuracies of silicone stopper placement were compensated by averaging measurements in four quadrants per well. […] Average null-migration values were subtracted from migrated distance before evaluation.

[5] = Resazurin reduction viability assay in the cell migration assay; format: cell-based; conditions: human
Procedure: as §2

[6] = cited from earlier work
in vitro = conditions: human
Procedure: (§3) Dispersed cells were seeded into two identical poly-D-lysine (10 µg/ml) coated 96-well plates (Corning Costar, Kaiserslautern, Germany) at a density of 10,000 cells per well. Cultures were exposed to up to seven different concentrations of a test compound in DMEM/F12 (six technical replicates per concentration) for 24 h. One plate was immediately fixed in 4% paraformaldehyde in PBS (PFA) for 15 min. After 24 h, while a resazurin reduction assay (2 h) was performed on the other plate. […] Fixed cells were washed in PBS containing 0.1% Triton X100 (PBS-T) and immunolabeled for ß-tubulin type III (monoclonal anti ßtubIII, 1:20,000) using a red fluorescent secondary antibody (goat anti mouse-alexaFluor568, Invitrogen, Germany, 1:250) and DAPI (0.1 µg/ml) as nuclear counterstain. Cells were examined on a Zeiss Axiovert 200 inverted microscope equipped with a CoolSnap camera (Photometrics, Tucson, AZ, USA) and MetaMorph software (Molecular Devices, Sunnyvale, CA, USA), or a Zeiss Axiocam50 mono and Zeiss ZENlite 2.6 blue edition software. Two photographs/well at × 20 magnification were taken. Lengths of all neurites in the field of view were measured in ImageJ (http://imagej.nih.gov/ij) using the ‚segmented line ‘ tool (Fig. 1c) and divided by the number of ß-tubulin III-positive cells.

[7] = tested on: differentiating NT2 cells; assay: Resazurin reduction viability assay in the neuronal differentiation assay; format: cell-based, human; conditions: differentiation assay
Procedure: as §1

neurospheres = tested on: neurospheres; set-up: method as in Ishido and Suzuki ([2010]); conditions: general cytotoxicity not tested; ref Ishido and Suzuki ([2010]); read-out: IC50 cell migration out of neurospheres; cited from earlier work
[8] = human
Procedure: as §3

[9] = tested on: NT2 cells treated for 2 weeks with retinoic acid (2wkRA); conditions: […]
Procedure: as §3

[10] = tested on: differentiating NT2 cells; conditions: 333 µM sodium valproate; ref Stern et al. [2014]; cited from earlier work
[11] = tested on: differentiating NT2 cells; set-up: method as in Stern et al. [2014]; conditions: 333 µM sodium valproate; ref Stern et al. [2014]; cited from earlier work
[12] = yes = at least one concentration of rescuing compound with specific endpoint significantly less affected
[13] = migration assay, 44 h exposure, > = highest tested concentration, read-out: IC50 general cytotoxicity (resazurin), unspec. EP
[14] = co-applied with 2.4 µM rotenone
[15] = yes = at least one concentration of rescuing compound with specific endpoint significantly less affected than by test compound alone

COc1cc2c(c(OC)c1OC)-c1ccc(OC)c(=O)cc1[C@@H](NC(C)=O)CC2 [Colchicine]
Effect on neurite outgrowth, endpoint specific control compounds (NT2 neurons): specifically inhibits neurite outgrowth

C=C1[C@@H](C)[C@H]2[C@H](Cc3ccccc3)NC(=O)[C@]23[C@H](OC(C)=O)/C=C/[C@@](C)(O)C(=O)[C@@H](C)C/C=C/[C@H]3[C@@H]1O [Cytochalasin D, [(1R,2R,3E,5R,7S,9E,11R,12S,14S,15R,16S)-16-Benzyl-5,12-dihydroxy-5,7,14-trimethyl-13-methylidene-6,18-dioxo-17-azatricyclo[9.7.0.0^1,15]octadeca-3,9-dien-2-yl] acetate]
activity at 0.1 µM (NT2 neurons; Homo sapiens, Neuron, 100 nM cytochalasin D, read-out: Neurite outgrowth (% of control), endpoint-specific control): < 25% | Effect on neurite outgrowth, endpoint specific control compounds (NT2 neurons): specifically inhibits neurite outgrowth | Effect on cell motility, null-migration reference (NT2 precursor cells [1]): completely inhibits cell motility

N#Cc1nn(-c2c(Cl)cc(C(F)(F)F)cc2Cl)c(N)c1S(=O)(=O)C(F)(F)F [Fipronil sulfone, 5-Amino-1-[2,6-dichloro-4-(trifluoromethyl)phenyl]-4-(trifluoromethylsulfonyl)pyrazole-3-carbonitrile]
IC50 (NT2 neurons; Homo sapiens, 24 h exposure, total neurite length/neuron, normalized to solvent control, read-out: IC50 neurite outgrowth (spec. EP)): 34 µM | IC50 ([2]; Homo sapiens, 5 days exposure): 9.77 µM | activity at 7.81 µM ([2]; Homo sapiens, NT2, 7.81 µM fipronil sulfone, read-out: Neuronal differentiation (% of control)): 70% | Rescue by NAC, neuronal differentiation [2, 12]: no | viability ([3]; 7.81 µM fipronil sulfone, read-out: General viability (% of control)): ~100% | IC50 ([3]; differentiation assay, 5 days exposure, read-out: IC50 general cytotoxicity (resazurin), unspec. EP): 15.5 µM | Concentrations with significant differences between viability and migration (NT2 precursor cells [4]; 44 h exposure): ≥ 15.63 µM | activity at 15.63 µM (NT2 precursor cells [4]; Homo sapiens, 15.63 µM fipronil sulfone, read-out: Migration (% of control)): < 40% | IC50 (NT2 precursor cells [4]; Homo sapiens, 44 h exposure): 14.2 µM | Rescue by NAC, migration (NT2 precursor cells [4]): yes | Rescue by Y-27632, migration (NT2 precursor cells [4]): Yes | viability ([5]; 15.63 µM fipronil sulfone, read-out: Viability (% of control)): 85% | IC50 [5, 13]: > 62.5 µM | Blood concentration in workers with occupational fipronil exposure ([6]; ref Herin et al. [2011]): up to 0.1 µM | Concentration measured in umbilical cord blood ([6]; urban population of South Korea, ref Kim et al. [2019]): up to 1.1 nM | IC50 (in vitro): 43 µM

CC(=O)N[C@@H](CS)C(=O)O [NAC, (2R)-2-Acetamido-3-sulfanylpropanoic acid]
Effect on rotenone-induced NT2 neurite outgrowth inhibition (NT2 neurons; [14]): could not change | Effect on fipronil inhibition of NT2 differentiation ([2]; 370 µM NAC and higher, with 15 µM fipronil): completely negated | EC50 ([2]; Homo sapiens, NT2, co-applied with 15 µM fipronil, read-out: EC50 rescue of fipronil-inhibited neuronal differentiation): 94.7 µM | Effect on rotenone inhibition of ß-tubulin III-immunofluorescence ([2]; co-applied with 11 nM rotenone, any concentration): could not alleviate | EC50 (NT2 precursor cells [4]; Homo sapiens, all three tested endpoints as worded in abstract, read-out: EC 50 ameliorating the inhibitory effects of fipronil on all three tested endpoints (abstract)): 84 to 164 µM | EC50 (NT2 precursor cells [4]; Homo sapiens, co-applied with 15 µM fipronil sulfone, only slight alleviation, read-out: EC50 alleviation of fipronil sulfone-inhibited migration (NAC)): 84.6 µM | EC50 (NT2 precursor cells [4]; Homo sapiens, co-applied with 50 µM fipronil, read-out: EC50 alleviation of fipronil-inhibited migration): 161 µM | Effect on rotenone inhibition of migration (NT2 precursor cells [4]; co-applied with 122 nM rotenone, any concentration): could not be alleviated | Effect on fipronil sulfone inhibition of migration (NT2 precursor cells [4]; co-applied with 15 µM fipronil sulfone): only slightly alleviated | Effect on fipronil-induced inhibition of migration (NT2 precursor cells [4]; co-applied with 50 µM fipronil): could completely counteract

C=C(C)[C@H]1Cc2c(ccc3c2O[C@@H]2COc4cc(OC)c(OC)cc4[C@@H]2C3=O)O1 [Rotenone, (1S,6R,13S)-16,17-Dimethoxy-6-prop-1-en-2-yl-2,7,20-trioxapentacyclo[11.8.0.0^3,11.0^4,8.0^14,19]henicosa-3(11),4(8),9,14,16,18-hexaen-12-one]
IC50 (NT2 neurons; Homo sapiens, Neuron, 24 h, read-out: IC50 neurite outgrowth (spec. EP)): 0.55 µM | IC50 (NT2 neurons; Homo sapiens, Neuron, 24 h, read-out: IC50 spec. EP (neurite outgrowth)): 0.55 µM | activity at 0.123 µM (NT2 neurons; Homo sapiens, Neuron, read-out: Neurite outgrowth (% of control)): < 75% | Rescue by NAC, neurite outgrowth (NT2 neurons; [15]): no | Rescue by Y-27632, neurite outgrowth (NT2 neurons; [15]): Yes | ß-tubulin III-expression (% of control) ([2]; 1.2 nM rotenone, highest non-cytotoxic concentration): below 75% | IC50 ([2]; Homo sapiens): 0.00518 µM | Rescue by NAC, neuronal differentiation [2, 12]: no | Rescue by Y-27632, neuronal differentiation [2, 12]: No | IC50 at 5 days ([3]; differentiation assay, 5 days exposure, > = highest tested concentration, read-out: IC50 general cytotoxicity (resazurin), unspec. EP): > 0.1 µM | viability at 5 days, 0.1 µM ([3]; highest tested rotenone concentration (100 nM), read-out: General viability (% of control)): 72% | Highest non-cytotoxic concentration (viability > 90%) [7]: 1.2 nM | Concentration at which a significant reduction of migration could already be observed (NT2 precursor cells [4]; 44 h exposure): 4.12 nM | IC50 (NT2 precursor cells [4]; Homo sapiens, 44 h): 0.051 µM | Rescue by NAC, migration (NT2 precursor cells [4]): no | Rescue by Y-27632, migration (NT2 precursor cells [4]): Yes | viability at 44 h, 0.333 µM ([5]; highest tested rotenone concentration (333 nM), read-out: General viability (% of control)): > 70% | IC50 at 44 h [5, 13]: > 0.333 µM | IC50 (neurospheres): ~0.2 µM | IC50 at 24 h [8]: > 10 µM | viability at 24 h, 10 µM ([8]; General cell viability (% of control), highest tested concentration, 10 µM rotenone): ~80% | Highest non-cytotoxic concentration (viability > 90%) [9]: 123 nM

CCCC(CCC)C(=O)[O-].[Na+] [Sodium valproate, Sodium; 2-propylpentanoate]
Neuronal differentiation (% of control), endpoint-specific control [10]: less than 50% | General viability (% of control), endpoint-specific control [11]: above 85%

C[C@@H](N)[C@H]1CC[C@H](C(=O)Nc2ccncc2)CC1 [Y-27632, 4-[(1R)-1-Aminoethyl]-N-pyridin-4-ylcyclohexane-1-carboxamide]
activity at 50 µM (NT2 neurons; Homo sapiens, Neuron, 50 µM Y-27632, without affecting general viability, read-out: Neurite outgrowth (% of control), endpoint-specific control): > 125% | EC50 (NT2 neurons; Homo sapiens, Neuron, co-applied with 2.4 µM rotenone, read-out: EC50 compensation of rotenone-inhibited neurite outgrowth): 12.1 µM | Effect on rotenone-induced NT2 neurite outgrowth inhibition (NT2 neurons; [14]): could alleviate | activity at 50 µM (NT2 precursor cells [4]; Homo sapiens, 50 µM Y-27632, without affecting general viability, read-out: Precursor cell migration (% of control), endpoint-specific control): > 125% | EC50 (NT2 precursor cells [4]; Homo sapiens, co-applied with 122 nM rotenone, read-out: EC50 alleviation of rotenone-inhibited migration): 8.3 µM | EC50 (NT2 precursor cells [4]; Homo sapiens, co-applied with 15 µM fipronil sulfone, read-out: EC50 alleviation of fipronil sulfone-inhibited migration (Y-27632)): 4.22 µM | Effect on fipronil-induced inhibition of migration (NT2 precursor cells [4]; co-applied with 50 µM fipronil): could not alleviate; also recorded: could not be alleviated

CC(C)=CCC/C(C)=C/CC/C(C)=C/CC[C@]1(C)CCc2c(C)c(O)c(C)c(C)c2O1 [α-tocotrienol, (2R)-2,5,7,8-Tetramethyl-2-[(3E,7E)-4,8,12-trimethyltrideca-3,7,11-trienyl]-3,4-dihydrochromen-6-ol]
Effect on rotenone-induced NT2 neurite outgrowth inhibition (NT2 neurons; [14]): could not change
